# Laboratory results reported in patent US8795632B2, “Disease animal model for chronic pain” (Astellas Pharma Inc., priority 2008, dated 2014).
# What was measured:
# [1] = test system: Sprague-Dawley rats; assay: Skin pain sensation threshold value (von Frey filaments) after repeated administration of reserpine; assay type: in vivo, rat; settings: for time after reserpine final administration until which skin pain sensation threshold value was statistically significantly low vs solvent group: reserpine 1 mg/kg s.c. once a day for 3 days
# Experimental: Measurement of muscle pressure pain threshold value was carried out in accordance with the method of Schafers et al. (Schafers M. et al., Pain, 104, 579-588, 2003). A pressure stimulus of gradually increasing to 250 g at the maximum was added to the rat right hind leg gastrocnemius muscle. […] The measurement was carried out 3 times at each point of time of the measurement, and the average was used as the measurement value. Measurement of the skin pain sensation threshold value was carried out in accordance with the method of Chaplan et al. (Chaplan et al., J. Neurosci. Methods, 53, 55-63, 1994). This was measured using a series of von Frey filaments having different diameters which may add a constant pressure. […] The von Frey filament was applied using the up and down method. That is, by firstly applying a filament of middle diameter, a filament having one rank smaller diameter was applied when the withdrawal reaction was observed or a filament having one rank larger diameter was applied when the withdrawal reaction was not observed. The skin pain sensation threshold value at each point of time of the measurement was calculated as a hind paw withdrawal reaction threshold value (g) using the calculation formula reported by Chaplan et al. (Chaplan et al., described above). Influences of reserpine upon the muscle pressure pain threshold value and skin pain sensation threshold value were examined by the following protocol. A total of 24 animals for each of male and female rats were used. After measuring muscle pressure pain threshold value and skin pain sensation threshold value before the reserpine treatment (base line), they were divided based on the reserpine administration doses into a solvent (0.5% acetic acid aqueous solution) group, a reserpine 0.1 mg/kg group, a 0.3 mg/kg group and a 1 mg/kg group (the number of animals per one group was 6). The solvent or reserpine was subcutaneously administered on the back of the rats of each group once a day for 3 days. All of the administration volume of the solvent or reserpine was set to 1 ml per 1 kg body weight of each animal. After final administration of the solvent or reserpine, the muscle pressure pain threshold value and skin pain sensation threshold value of each rat were measured 1, 3, 5, 7, 10, 14 and 21 days thereafter.
# All of the measured values were expressed as average value±standard error. Statistical significance test of the measured values between the reserpine administration groups and the solvent administration group at each point of time was carried out by a two-way analysis of variance and the Bonferroni method. Probability value (P) of less than 5% was judged as statistically significant (P<0.05 was expressed as * in the graphs).
# [2] = test system: dopamine, norepinephrine and serotonin in the spinal cord, thalamus and prefrontal cortex; assay: Amounts of dopamine, norepinephrine and serotonin in spinal cord, thalamus and prefrontal cortex after repeated administration of reserpine (HPLC-ECD); assay type: in vivo, rat
# Experimental: Male Sprague-Dawley rats (7 weeks old, Japan SLC, Hamamatsu, Japan) were used as the animal.
# A total of 96 rats were divided into 8 test schedules (collection of samples before administration and 1, 3, 5, 7, 10, 14 or 21 days after the final administration) and further divided each of them into a vehicle (0.5% acetic acid aqueous solution) administration group, a reserpine 0.1 mg/kg administration group, a 0.3 mg/kg administration group and a 1 mg/kg administration group, to 3 rats per group. As shown in Example 1, the vehicle or 0.1, 0.3 or 1 mg/kg of reserpine was repeatedly administered to each rat once a day for 3 days, and the brain and spinal cord were quickly collected 1, 3, 5, 7, 10, 14 or 21 days after the final administration. The thalamus and prefrontal cortex were separated from the brain on an ice-cold dish.
# Regarding the sampling before administration, samples were collected before beginning of the repeated administration of vehicle or reserpine. The collected samples were quickly frozen and stored at −80° C. until their use in the measurements. On the day of the measurement, tissues of respective samples were subjected to wet weight measurement, homogenized in 0.2 M perchloric acid/0.1 mM EDTA-2Na solution using an ultrasonic homogenizer. After centrifugation at 15,000 g and at 4° C. for 15 minutes, the supernatant was adjusted to pH 3.5 using sodium acetate and filtered using a filter. Amounts of dopamine, norepinephrine and serotonin in these samples were measured using a high performance liquid chromatography (column: SC-50DS 30, 150 mm, Eicom Co., Ltd., Kyoto, Japan, mobile phase composition: 0.1 M sodium acetate buffer, 0.1 M citrate buffer, pH 3.5, 5 mg/l EDTA-2Na, 190 mg/l sodium octane sulfonic acid, 17% methanol) and an electrochemical detector (ECD-300, Eicom Co., Ltd., Kyoto, Japan). The measurement was carried out under conditions of flow rate 0.5 ml/min, applied voltage 750 mV and 25° C. Amounts of dopamine, norepinephrine and serotonin in the samples were quantified by comparing sample peak areas of respective standards measured on the same day of the sample measurement. All of the measured values were expressed as average value±standard error in the graphs, and unit of the measured values was set to ng/g tissue wet weight.
# Statistical difference of the measured values between the reserpine administration group and the vehicle administration group in each test schedule was carried out by the two-way analysis of variance and the Bonferroni method. Probability value (P) of less than 5% was judged as statistically significant (P<0.05 was expressed as * in the graphs). In addition, average values of respective groups at each point of time were expressed as percentages of the average values of corresponding vehicle administration groups.
# [3] = reserpine 0.1 mg/kg s.c. once a day for 3 days, 1 day after final administration
# [4] = reserpine 0.3 mg/kg s.c. once a day for 3 days, 1 day after final administration
# [5] = reserpine 1 mg/kg s.c. once a day for 3 days, 1 day after final administration
# [6] = reserpine 1 mg/kg s.c. once a day for 3 days, after 21 days
smiles,measurement,setting,value
COC(=O)[C@H]1[C@H]2C[C@@H]3c4[nH]c5cc(OC)ccc5c4CCN3C[C@H]2C[C@@H](OC(=O)c2cc(OC)c(OC)c(OC)c2)[C@@H]1OC [reserpine],time after reserpine final administration until which skin pain sensation threshold value was statistically significantly low vs solvent group,[1]; female rats,14 days
same,skin pain sensation threshold value,"[1]; male and female rats, reserpine 0.1, 0.3, 1 mg/kg s.c. once a day for 3 days, two-way analysis of variance vs solvent",significantly reduced
same,time after reserpine final administration until which skin pain sensation threshold value was statistically significantly low vs solvent group,[1]; male rats,21 days
same,skin pain sensation threshold value,"[1]; reserpine 1 mg/kg group, s.c. once a day for 3 days",markedly reduced
same,"amount of dopamine in the prefrontal cortex, % of the vehicle administration group",[2]; [3],49.1%
same,"amount of dopamine in the spinal cord, % of the vehicle administration group",[2]; [3],46.4%
same,"amount of dopamine in the thalamus, % of the vehicle administration group",[2]; [3],49.2%
same,"amount of norepinephrine in the prefrontal cortex, % of the vehicle administration group",[2]; [3],10.2%
same,"amount of norepinephrine in the spinal cord, % of the vehicle administration group",[2]; [3],19.1%
same,"amount of norepinephrine in the thalamus, % of the vehicle administration group",[2]; [3],43.8%
same,"amount of serotonin in the prefrontal cortex, % of the vehicle administration group",[2]; [3],42.0%
same,"amount of serotonin in the spinal cord, % of the vehicle administration group",[2]; [3],45.4%
same,"amount of serotonin in the thalamus, % of the vehicle administration group",[2]; [3],28.8%
same,"amount of dopamine in the prefrontal cortex, % of the vehicle administration group",[2]; [4],21.4%
same,"amount of dopamine in the spinal cord, % of the vehicle administration group",[2]; [4],26.3%
same,"amount of dopamine in the thalamus, % of the vehicle administration group",[2]; [4],53.2%
same,"amount of norepinephrine in the prefrontal cortex, % of the vehicle administration group",[2]; [4],0.7%
same,"amount of norepinephrine in the spinal cord, % of the vehicle administration group",[2]; [4],2.6%
same,"amount of norepinephrine in the thalamus, % of the vehicle administration group",[2]; [4],6.1%
same,"amount of serotonin in the prefrontal cortex, % of the vehicle administration group",[2]; [4],15.5%
same,"amount of serotonin in the spinal cord, % of the vehicle administration group",[2]; [4],15.7%
same,"amount of serotonin in the thalamus, % of the vehicle administration group",[2]; [4],14.8%
same,"amount of dopamine in the prefrontal cortex, % of the vehicle administration group",[2]; [5],13.4%
same,"amount of dopamine in the spinal cord, % of the vehicle administration group",[2]; [5],18.4%
same,"amount of dopamine in the thalamus, % of the vehicle administration group",[2]; [5],24.5%
same,"amount of norepinephrine in the prefrontal cortex, % of the vehicle administration group",[2]; [5],0.2%
same,"amount of norepinephrine in the spinal cord, % of the vehicle administration group",[2]; [5],0.6%
same,"amount of norepinephrine in the thalamus, % of the vehicle administration group",[2]; [5],1.2%
same,"amount of serotonin in the prefrontal cortex, % of the vehicle administration group",[2]; [5],4.6%
same,"amount of serotonin in the spinal cord, % of the vehicle administration group",[2]; [5],0.1%
same,"amount of serotonin in the thalamus, % of the vehicle administration group",[2]; [5],8.9%
same,"amount of dopamine in the prefrontal cortex, % of the vehicle administration group",[2]; [6],54.9%
same,"amount of dopamine in the spinal cord, % of the vehicle administration group",[2]; [6],70.1%
same,"amount of dopamine in the thalamus, % of the vehicle administration group",[2]; [6],66.5%
same,"amount of norepinephrine in the prefrontal cortex, % of the vehicle administration group",[2]; [6],29.1%
same,"amount of norepinephrine in the spinal cord, % of the vehicle administration group",[2]; [6],59.4%
same,"amount of norepinephrine in the thalamus, % of the vehicle administration group",[2]; [6],46.0%
same,"amount of serotonin in the prefrontal cortex, % of the vehicle administration group",[2]; [6],47.0%
same,"amount of serotonin in the spinal cord, % of the vehicle administration group",[2]; [6],67.8%
same,"amount of serotonin in the thalamus, % of the vehicle administration group",[2]; [6],60.7%
